Literature values, collected in article PMC8025584, “Identification of multipotent drugs for COVID-19 therapeutics with the evaluation of their SARS-CoV2 inhibitory activity” (Computational and Structural Biotechnology Journal, 2021).
Counter-ions that a name gives are not always drawn. Like-named read-outs stand apart in the source and are kept apart here.

System: differentially expressed human proteins in COVID-19
Settings: cited from earlier work
[1] = gene HCK, drug-gene interaction listed in DGIdb export, ref DGIdb
[2] = gene CACNA1A, drug-gene interaction listed in DGIdb export, ref DGIdb
[3] = gene F5, drug-gene interaction listed in DGIdb export, ref DGIdb
[4] = gene TNF, drug-gene interaction listed in DGIdb export, ref DGIdb
[5] = gene CCR1, drug-gene interaction listed in DGIdb export, ref DGIdb

CCc1c2c(nc3ccc(OC(=O)N4CCC(N5CCCCC5)CC4)cc13)-c1cc3c(c(=O)n1C2)COC(=O)[C@]3(O)CC [IRINOTECAN, reference compound]
interaction_types (gene ISG15, ref DGIdb): inhibitor

CN(C)CC/C=C1/c2ccccc2COc2ccc(CC(=O)O)cc21 [OLOPATADINE, reference compound]
interaction_types (gene S100A12, ref DGIdb): antagonist

Cl.N=C(N)N [GUANIDINE HYDROCHLORIDE]
interaction_types (gene KCNH7, ref DGIdb): blocker

C=CC(=O)N1CCC[C@@H](n2nc(-c3ccc(Oc4ccccc4)cc3)c3c(N)ncnc32)C1 [IBRUTINIB]
interaction_types [1]: inhibitor

CCOC(=O)C1=C(COCCN)NC(C)=C(C(=O)OC)C1c1ccccc1Cl (centres unmarked) [AMLODIPINE]
interaction_types (gene CA1, ref DGIdb): inhibitor

C[C@]12C=CC(=O)C=C1CC[C@@H]1[C@@H]2CC[C@]2(C)OC(=O)CC[C@@H]12 [TESTOLACTONE]
interaction_types (gene CYP19A1, ref DGIdb): inhibitor

COc1cc2nc(N3CCN(C(=O)C4COc5ccccc5O4)CC3)nc(N)c2cc1OC (centres unmarked) [DOXAZOSIN]
interaction_types (gene KCNH7, ref DGIdb): inhibitor

CC(C)COCC(CN(Cc1ccccc1)c1ccccc1)N1CCCC1 (centres unmarked) [BEPRIDIL HYDROCHLORIDE]
interaction_types [2]: blocker

NC(=O)[C@@H](CCC(F)(F)F)N(Cc1ccc(-c2ncon2)cc1F)S(=O)(=O)c1ccc(Cl)cc1
interaction_types (gene PSENEN, ref DGIdb): inhibitor

CCCCc1oc2ccc(NS(C)(=O)=O)cc2c1C(=O)c1ccc(OCCCN(CCCC)CCCC)cc1 [DRONEDARONE HYDROCHLORIDE]
interaction_types (gene KCNJ2, ref DGIdb): blocker

CC(/C=C/[C@@H]1C[C@]1(C)c1ccc2c(c1)C(C)(C)CCC2(C)C)=C\C(=O)O [IRX-4204]
interaction_types (gene RXRB, ref DGIdb): agonist

Cc1c(CN2CCN(C(=O)[C@H](C)O)CC2)sc2c(N3CCOCC3)nc(-c3cnc(N)nc3)nc12 [APITOLISIB]
interaction_types (gene FGR, ref DGIdb): inhibitor

REGRAMOSTIM
interaction_types (gene CSF2RB, ref DGIdb): agonist

C#CC1(OC(N)=O)CCCCC1 [ETHINAMATE]
interaction_types: inhibitor

CCC[C@@H](C)C[C@H](N)CC(=O)O [IMAGABALIN]
interaction_types [2]: modulator

CN(CCO)CC(O)Cn1cnc2c1c(=O)n(C)c(=O)n2C (centres unmarked) [XANTHINOL]
interaction_types (gene RPL3, drug-gene interaction listed in DGIdb export, ref DGIdb): binder

O=S(=O)(N[C@H](CO)C(C(F)(F)F)C(F)(F)F)c1ccc(Cl)s1 [BEGACESTAT]
interaction_types (gene PSENEN, ref DGIdb): inhibitor

DROTRECOGIN ALFA (ACTIVATED)
interaction_types [3]: inhibitor

CCOC(=O)/C=C(C)/C=C/C=C(C)/C=C/c1c(C)cc(OC)c(C)c1C [ETRETINATE]
interaction_types (gene RXRB, ref DGIdb): agonist

Nc1cc(-c2ccncc2)c[nH]c1=O [INAMRINONE]
interaction_types [4]: inhibitor

COc1ccc(-c2ccc3cc(C(=O)O)ccc3c2)cc1C12CC3CC(CC(C3)C1)C2
interaction_types (gene JUN, drug-gene interaction listed in DGIdb export, ref DGIdb): antagonist | interaction_types (gene RXRB, ref DGIdb): agonist

CC(C)(C)c1[nH]cnc1/C=c1\[nH]c(=O)/c(=C/c2ccccc2)[nH]c1=O [PLINABULIN]
interaction_types (gene TUBA4A, ref DGIdb): inhibitor

COc1cc2c(c(OC)c1OC)-c1ccc(OC)c(=O)cc1[C@@H](NC(C)=O)CC2 [COLCHICINE]
interaction_types (gene TUBA4A, ref DGIdb): inhibitor

COc1ccccc1OCCNCC(O)COc1cccc2[nH]c3ccccc3c12 (centres unmarked) [CARVEDILOL, reference compound]
interaction_types (gene KCNJ2, ref DGIdb): inhibitor

Nc1ncc(-c2cnn(CCO)c2)c2scc(-c3ccc(NC(=O)Nc4cccc(F)c4)cc3)c12 [ILORASERTIB]
interaction_types (gene FGR, ref DGIdb): inhibitor | interaction_types [1]: inhibitor

CC[C@]12C=CCN3CC[C@@]4(c5cc([C@@]6(C(=O)OC)C[C@@H]7C[C@@H](C(C)(F)F)CN(Cc8c6[nH]c6ccccc86)C7)c(OC)cc5N(C)[C@H]4[C@@](O)(C(=O)OC)[C@@H]1OC(C)=O)[C@@H]32 [VINFLUNINE]
interaction_types (gene TUBA4A, ref DGIdb): inhibitor

O=C1C[C@@H](c2ccc(O)cc2)Oc2cc(O)cc(O)c21 [NARINGENIN]
interaction_types (gene CYP19A1, ref DGIdb): inhibitor

INTERLEUKIN 15, RECOMBINANT NON-GLYCOSYLATED
interaction_types (gene IL2RG, ref DGIdb): agonist

CC(O)(P(=O)(O)O)P(=O)(O)O [ETIDRONIC ACID]
interaction_types (gene SLC25A4, ref DGIdb): inhibitor

COc1cc2nc(N3CCN(C(=O)C4CCCO4)CC3)nc(N)c2cc1OC (centres unmarked) [TERAZOSIN]
interaction_types (gene KCNH7, ref DGIdb): inhibitor

NS(=O)(=O)c1cc2c(cc1Cl)NC(C1CC3C=CC1C3)NS2(=O)=O (centres unmarked) [CYCLOTHIAZIDE, reference compound]
interaction_types (gene CA1, ref DGIdb): inhibitor

CC1=NS(=O)(=O)c2cc(Cl)ccc2N1 [DIAZOXIDE]
interaction_types (gene CA1, ref DGIdb): inhibitor

O=C(Nc1ccncc1)C(=O)c1cn(Cc2ccc(Cl)cc2)c2ccccc12 [INDIBULIN]
interaction_types (gene TUBA4A, ref DGIdb): inhibitor

CC(=O)O[C@H]1C(=O)[C@@]2(C)[C@H]([C@H](OC(=O)c3ccccc3)[C@]3(O)C[C@H](OC(=O)[C@H](O)[C@@H](NC(=O)c4ccccc4)c4ccccc4)C(C)=C1C3(C)C)[C@]1(OC(C)=O)CO[C@@H]1C[C@@H]2O [Paclitaxel, reference compound]
interaction_types (gene TUBA4A, ref DGIdb): inhibitor

O=C1CCC(N2C(=O)c3ccccc3C2=O)C(=O)N1 (centres unmarked) [THALIDOMIDE, reference compound]
interaction_types [4]: inhibitor

N#Cc1ccc(C2CCCc3cncn32)cc1 (centres unmarked) [FADROZOLE]
interaction_types: inhibitor

CCCCc1c(-c2ccc(OC)cc2)[nH]c2nccnc12 [ALOISINE]
interaction_types (gene PTK2B, ref DGIdb): inhibitor

CCCCCc1cccc(CC(=O)O)c1 [SETOGEPRAM]
interaction_types (gene GPR84, ref DGIdb): antagonist

Nc1cccc2c1C(=O)N(C1CCC(=O)NC1=O)C2=O (centres unmarked) [POMALIDOMIDE]
interaction_types [4]: inhibitor

CCOc1ccc2nc(S(N)(=O)=O)sc2c1 [ETHOXZOLAMIDE]
interaction_types (gene CA1, ref DGIdb): inhibitor

FILGRASTIM
interaction_types (gene CSF2RB, ref DGIdb): agonist | interaction_types (gene CSF3R, ref DGIdb): stimulator¦agonist

CC(=O)O[C@@]12CO[C@@H]1C[C@H](O)[C@@]1(C)C(=O)[C@H](O)C3=C(C)[C@@H](OC(=O)[C@H](O)[C@@H](NC(=O)OC(C)(C)C)c4ccccc4)C[C@@](O)([C@@H](OC(=O)c4ccccc4)[C@H]21)C3(C)C [DOCETAXEL, reference compound]
interaction_types (gene TUBA4A, ref DGIdb): inhibitor

COc1ccc(S(=O)(=O)N(Cc2cccnc2)[C@@H](C(=O)NO)C(C)C)cc1 [CGS-27023A]
interaction_types (gene MMP8, ref DGIdb): inhibitor

ETANERCEPT
interaction_types [4]: inhibitor¦antibody

Cc1cc(-c2cc(OC(=O)c3ccccc3)ccc2Cl)cc2nnc(Nc3ccc(OCCN4CCCC4)cc3)nc12 [TG100-801]
interaction_types (gene FGR, ref DGIdb): inhibitor | interaction_types [1]: inhibitor

CC(C)[C@H](O)C(=O)N[C@@H](C)C(=O)N[C@@H]1C(=O)N(C)CCc2ccccc21
interaction_types (gene PSENEN, ref DGIdb): inhibitor

CCCc1c2oc(C(=O)O)cc(=O)c2cc2c(=O)cc(C(=O)O)n(CC)c12 [NEDOCROMIL, reference compound]
interaction_types (gene FPR1, ref DGIdb): antagonist

THROMBIN
interaction_types [3]: activator

Nc1ccc(SC[C@@H]2CO[C@](CCc3ccc(Cl)cc3)(Cn3ccnc3)O2)cc1 [AZALANSTAT]
interaction_types (gene CYP19A1, ref DGIdb): inhibitor

O=c1nc(OC[C@@H]2COCCO2)cc2n1CCc1cc(C#CC3CC3)ccc1-2 [GLPG-1205]
interaction_types (gene GPR84, ref DGIdb): antagonist

CN(C)C(=N)N=C(N)N [METFORMIN]
interaction_types (gene PRKAB1, ref DGIdb): activator¦inducer

CNC(=O)c1cc(Cl)c(OC(C)(C)C(=O)O)cc1OC[C@@H](O)CN1CCC2(CC1)Cc1cc(Cl)ccc1O2 [AZD4818]
interaction_types [5]: antagonist

COc1cc(N2CCN(C(=O)Cn3nc(-c4ncc[nH]4)c4cccnc43)CC2)ccc1Cl [CCX354]
interaction_types [5]: antagonist

CCC1=C[C@@H]2CN(C1)Cc1c([nH]c3ccccc13)[C@@](C(=O)OC)(c1cc3c(cc1OC)N(C)[C@H]1[C@@](O)(C(=O)OC)[C@H](OC(C)=O)[C@]4(CC)C=CCN5CC[C@]31[C@@H]54)C2 [VINORELBINE TARTRATE]
interaction_types (gene TUBA4A, ref DGIdb): inhibitor

CCN[C@H]1C[C@H](C)S(=O)(=O)c2sc(S(N)(=O)=O)cc21 [DORZOLAMIDE]
interaction_types (gene CA1, ref DGIdb): inhibitor

CCCCCC/C=C\CCCCCCCCCC(=O)N[C@H]1[C@H](OC[C@H]2O[C@H](OP(=O)(O)O)[C@H](NC(=O)CC(=O)CCCCCCCCCCC)[C@@H](OCCCCCCCCCC)[C@@H]2O)O[C@H](COC)[C@@H](OP(=O)(O)O)[C@@H]1OCC[C@@H](CCCCCCC)OC [ERITORAN TETRASODIUM]
interaction_types (gene LY96, ref DGIdb): antagonist

CC(=O)/N=c1/sc(S(N)(=O)=O)nn1C [METHAZOLAMIDE]
interaction_types (gene CA1, ref DGIdb): inhibitor

NS(=O)(=O)c1cc2c(cc1Cl)NCNS2(=O)=O [HYDROCHLOROTHIAZIDE, reference compound]
interaction_types (gene CA1, ref DGIdb): inhibitor

CC(=O)Nc1nnc(S(N)(=O)=O)s1 [ACETAZOLAMIDE]
interaction_types (gene CA1, ref DGIdb): inhibitor

CC(C)c1cc(CNc2nc(Nc3cc(C4CC4)[nH]n3)cc(N3CCN(C)CC3)n2)on1 [XL-228]
interaction_types (gene FGR, ref DGIdb): inhibitor | interaction_types [1]: inhibitor

CCC1(c2ccc(N)cc2)CCC(=O)NC1=O (centres unmarked) [AMINOGLUTETHIMIDE, reference compound]
interaction_types (gene CYP19A1, ref DGIdb): inhibitor

CCN[C@H]1CN(CCCOC)S(=O)(=O)c2sc(S(N)(=O)=O)cc21 [BRINZOLAMIDE]
interaction_types (gene CA1, ref DGIdb): inhibitor

C=C(c1ccc(C(=O)O)cc1)c1cc2c(cc1C)C(C)(C)CCC2(C)C [BEXAROTENE, reference compound]
interaction_types (gene RXRB, ref DGIdb): activator¦agonist
